In patent US9815847B2 (Icahn School of Medicine at Mount Sinai, priority 2013, dated 2017):

Columns and labels:
[1] = system: K562; experiment: Cytotoxicity on K562 cancer cell line; format: cell-based; settings: Homo sapiens; K562 chronic myelogenous leukemia; 96 h; 0.01-100 μM
Method: The effect of the compounds described herein on tumor cells was determined by the assay described by Latham et al., Oncogene 12:827-837 (1996). Tumor cells K562 (chronic myelogenous leukemia; leukemia cell line +ve for Bcr-Abl) or DU145 (prostate cancer) were plated in 12-well dishes at a cell density of 2.5×10^4 cells per well. The plated cells were treated 24 h. later with a DMSO solution of a compound as described herein at multiple concentrations ranging from 0.01 μM to 100 μM. The plates were examined 96 h. later under an inverted microscope, Olympus CK-2 using a 10× objective, and compound activity was noted by physical observation. When necessary, the total number of viable cells was determined by trypsinizing the wells and counting the number of viable cells, as determined by trypan blue exclusion, using a hemacytometer.

[2] = molecular target: T1, Aurora C (Homo sapiens, UniProt Q9UQB9); experiment: Kinase inhibition assay; format: biochemical; settings: 10 μM ATP; 5-dose IC50 mode
T1 construct: purchased Reaction Biology Corporation
Method: (§1) Kinase assays were performed at Reaction Biology Corporation. To a freshly prepared buffer solution was added the target kinase at a concentration of […]. The contents were mixed gently, and then compound 8h dissolved in DMSO was added to the reaction mixture in the appropriate concentration. The mixture was incubated at room temperature for 30 min. prior to addition of ATP to initiate the reaction. Compound 8h was tested in a 5-dose IC50 mode with 10-fold serial dilutions starting at 10 μM. For each of the kinases, a control compound in a 10-dose IC50 mode with 3-fold serial dilutions starting at 20 μM. The control compounds were GW5074 (3-(3,5-dibromo-4-hydroxy-benzylidene)-5-iodo-1,3-dihydro-indol-2-one) for BRAF, CK2a and RAF1, D4476 (4-[4-(2,3-dihydro-1,4-benzodioxin-6-yl)-5-(2-pyridinyl)-1H-imidazol-2-yl]benzamide) for CK1d; Wee1 inhibitor (4-(2-chlorophenyl)-9-hydroxypyrrolo[3,4-c]carbazole-1,3-(2H,6H)-dione) for WEE1 and saturosporine for other kinases. Reaction was carried out at 10 μM ATP concentration.

[3] = molecular target: T2, PIM1 (Homo sapiens, UniProt P11309); experiment: Kinase inhibition assay; format: biochemical; settings: 10 μM ATP; 5-dose IC50 mode
T2 construct: purchased Reaction Biology Corporation
Method: as §1

[4] = molecular target: T3, CHK2 (Homo sapiens, UniProt O96017); experiment: Kinase inhibition assay; format: biochemical; settings: 10 μM ATP; 5-dose IC50 mode
T3 construct: purchased Reaction Biology Corporation
Method: as §1

[5] = molecular target: T4, CDK5/p35 (Homo sapiens, UniProt Q00535); experiment: Kinase inhibition assay; format: biochemical; settings: 10 μM ATP; 5-dose IC50 mode
T4 construct: purchased Reaction Biology Corporation
Method: as §1

[6] = molecular target: T5, CDK6/cyclin D1 (Homo sapiens, UniProt Q00534); experiment: Kinase inhibition assay; format: biochemical; settings: 10 μM ATP; 5-dose IC50 mode
T5 construct: purchased Reaction Biology Corporation
Method: as §1

[7] = molecular target: T6, ALK (Homo sapiens, UniProt Q9UM73); experiment: Kinase inhibition assay; format: biochemical; settings: 10 μM ATP; 5-dose IC50 mode
T6 construct: purchased Reaction Biology Corporation
Method: as §1

[8] = molecular target: T7, PLK1 (Homo sapiens, UniProt P53350); experiment: Kinase inhibition assay; format: biochemical; settings: 10 μM ATP; 5-dose IC50 mode
T7 construct: purchased Reaction Biology Corporation
Method: as §1

[9] = molecular target: T8, Aurora B (Homo sapiens, UniProt Q96GD4); experiment: Kinase inhibition assay; format: biochemical; settings: 10 μM ATP; 5-dose IC50 mode
T8 construct: purchased Reaction Biology Corporation
Method: as §1

[10] = molecular target: T9, JAK2 (Homo sapiens, UniProt O60674); experiment: Kinase inhibition assay; format: biochemical; settings: 10 μM ATP; 5-dose IC50 mode
T9 construct: purchased Reaction Biology Corporation
Method: as §1

[11] = molecular target: T10, RET (Homo sapiens, UniProt P07949); experiment: Kinase inhibition assay; format: biochemical; settings: 10 μM ATP; 5-dose IC50 mode
T10 construct: purchased Reaction Biology Corporation
Method: as §1

[12] = molecular target: T11, JAK3 (Homo sapiens, UniProt P52333); experiment: Kinase inhibition assay; format: biochemical; settings: 10 μM ATP; 5-dose IC50 mode
T11 construct: purchased Reaction Biology Corporation
Method: as §1

[13] = molecular target: T12, PIM3 (Homo sapiens, UniProt Q86V86); experiment: Kinase inhibition assay; format: biochemical; settings: 10 μM ATP; 5-dose IC50 mode
T12 construct: purchased Reaction Biology Corporation
Method: as §1

[14] = molecular target: T13, MEK1 (Homo sapiens, UniProt Q02750); experiment: Kinase inhibition assay; format: biochemical; settings: 10 μM ATP; 5-dose IC50 mode
T13 construct: purchased Reaction Biology Corporation
Method: as §1

[15] = molecular target: T14, CHK1 (Homo sapiens, UniProt O14757); experiment: Kinase inhibition assay; format: biochemical; settings: 10 μM ATP; 5-dose IC50 mode
T14 construct: purchased Reaction Biology Corporation
Method: as §1

[16] = molecular target: T15, PIM2 (Homo sapiens, UniProt Q9P1W9); experiment: Kinase inhibition assay; format: biochemical; settings: 10 μM ATP; 5-dose IC50 mode
T15 construct: purchased Reaction Biology Corporation
Method: as §1

[17] = molecular target: T16, c-Kit (Homo sapiens, UniProt P10721); experiment: Kinase inhibition assay; format: biochemical; settings: 10 μM ATP; 5-dose IC50 mode
T16 construct: purchased Reaction Biology Corporation
Method: as §1

[18] = molecular target: T17, RSK4 (Homo sapiens, UniProt Q9UK32); experiment: Kinase inhibition assay; format: biochemical; settings: 10 μM ATP; 5-dose IC50 mode
T17 construct: purchased Reaction Biology Corporation
Method: as §1

[19] = molecular target: T18, c-Src (Homo sapiens, UniProt P12931); experiment: Kinase inhibition assay; format: biochemical; settings: 10 μM ATP; 5-dose IC50 mode
T18 construct: purchased Reaction Biology Corporation
Method: as §1

[20] = molecular target: T19, CK2a2 (Homo sapiens, UniProt P19784); experiment: Kinase inhibition assay; format: biochemical; settings: 10 μM ATP; 5-dose IC50 mode
T19 construct: purchased Reaction Biology Corporation
Method: as §1

[21] = molecular target: T20, PDGFRb (Homo sapiens, UniProt P09619); experiment: Kinase inhibition assay; format: biochemical; settings: 10 μM ATP; 5-dose IC50 mode
T20 construct: purchased Reaction Biology Corporation
Method: as §1

[22] = molecular target: T21, AKT1 (Homo sapiens, UniProt P31749); experiment: Kinase inhibition assay; format: biochemical; settings: 10 μM ATP; 5-dose IC50 mode
T21 construct: purchased Reaction Biology Corporation
Method: as §1

[23] = molecular target: T22, FLT3 (Homo sapiens, UniProt P36888); experiment: Kinase inhibition assay; format: biochemical; settings: 10 μM ATP; 5-dose IC50 mode
T22 construct: purchased Reaction Biology Corporation
Method: as §1

[24] = molecular target: T23, FGFR1 (Homo sapiens, UniProt P11362); experiment: Kinase inhibition assay; format: biochemical; settings: 10 μM ATP; 5-dose IC50 mode
T23 construct: purchased Reaction Biology Corporation
Method: as §1

[25] = molecular target: T24, CDK5/p25 (Homo sapiens, UniProt Q00535); experiment: Kinase inhibition assay; format: biochemical; settings: 10 μM ATP; 5-dose IC50 mode
T24 construct: purchased Reaction Biology Corporation
Method: as §1

[26] = molecular target: T25, EGFR (Homo sapiens, UniProt P00533); experiment: Kinase inhibition assay; format: biochemical; settings: 10 μM ATP; 5-dose IC50 mode
T25 construct: purchased Reaction Biology Corporation
Method: as §1

[27] = molecular target: T26, CDK4/cyclin D1 (Homo sapiens, UniProt P11802); experiment: Kinase inhibition assay; format: biochemical; settings: 10 μM ATP; 5-dose IC50 mode
T26 construct: purchased Reaction Biology Corporation
Method: as §1

[28] = molecular target: T27, PLK2 (Homo sapiens, UniProt Q9NYY3); experiment: Kinase inhibition assay; format: biochemical; settings: 10 μM ATP; 5-dose IC50 mode
T27 construct: purchased Reaction Biology Corporation
Method: as §1

[29] = molecular target: T28, JAK1 (Homo sapiens, UniProt P23458); experiment: Kinase inhibition assay; format: biochemical; settings: 10 μM ATP; 5-dose IC50 mode
T28 construct: purchased Reaction Biology Corporation
Method: as §1

[30] = molecular target: T29, ABL1 (Homo sapiens, UniProt P00519); experiment: Kinase inhibition assay; format: biochemical; settings: 10 μM ATP; 5-dose IC50 mode
T29 construct: purchased Reaction Biology Corporation
Method: as §1

[31] = molecular target: T30, CDK2/cyclin A (Homo sapiens, UniProt P24941); experiment: Kinase inhibition assay; format: biochemical; settings: 10 μM ATP; 5-dose IC50 mode
T30 construct: purchased Reaction Biology Corporation
Method: as §1

[32] = molecular target: T31, ARK5/NUAK1 (Homo sapiens, UniProt O60285); experiment: Kinase inhibition assay; format: biochemical; settings: 10 μM ATP; 5-dose IC50 mode
T31 construct: purchased Reaction Biology Corporation
Method: as §1

[33] = molecular target: T32, Aurora A (Homo sapiens, UniProt O14965); experiment: Kinase inhibition assay; format: biochemical; settings: 10 μM ATP; 5-dose IC50 mode
T32 construct: purchased Reaction Biology Corporation
Method: as §1

T11 sequence (P52333 whole entry): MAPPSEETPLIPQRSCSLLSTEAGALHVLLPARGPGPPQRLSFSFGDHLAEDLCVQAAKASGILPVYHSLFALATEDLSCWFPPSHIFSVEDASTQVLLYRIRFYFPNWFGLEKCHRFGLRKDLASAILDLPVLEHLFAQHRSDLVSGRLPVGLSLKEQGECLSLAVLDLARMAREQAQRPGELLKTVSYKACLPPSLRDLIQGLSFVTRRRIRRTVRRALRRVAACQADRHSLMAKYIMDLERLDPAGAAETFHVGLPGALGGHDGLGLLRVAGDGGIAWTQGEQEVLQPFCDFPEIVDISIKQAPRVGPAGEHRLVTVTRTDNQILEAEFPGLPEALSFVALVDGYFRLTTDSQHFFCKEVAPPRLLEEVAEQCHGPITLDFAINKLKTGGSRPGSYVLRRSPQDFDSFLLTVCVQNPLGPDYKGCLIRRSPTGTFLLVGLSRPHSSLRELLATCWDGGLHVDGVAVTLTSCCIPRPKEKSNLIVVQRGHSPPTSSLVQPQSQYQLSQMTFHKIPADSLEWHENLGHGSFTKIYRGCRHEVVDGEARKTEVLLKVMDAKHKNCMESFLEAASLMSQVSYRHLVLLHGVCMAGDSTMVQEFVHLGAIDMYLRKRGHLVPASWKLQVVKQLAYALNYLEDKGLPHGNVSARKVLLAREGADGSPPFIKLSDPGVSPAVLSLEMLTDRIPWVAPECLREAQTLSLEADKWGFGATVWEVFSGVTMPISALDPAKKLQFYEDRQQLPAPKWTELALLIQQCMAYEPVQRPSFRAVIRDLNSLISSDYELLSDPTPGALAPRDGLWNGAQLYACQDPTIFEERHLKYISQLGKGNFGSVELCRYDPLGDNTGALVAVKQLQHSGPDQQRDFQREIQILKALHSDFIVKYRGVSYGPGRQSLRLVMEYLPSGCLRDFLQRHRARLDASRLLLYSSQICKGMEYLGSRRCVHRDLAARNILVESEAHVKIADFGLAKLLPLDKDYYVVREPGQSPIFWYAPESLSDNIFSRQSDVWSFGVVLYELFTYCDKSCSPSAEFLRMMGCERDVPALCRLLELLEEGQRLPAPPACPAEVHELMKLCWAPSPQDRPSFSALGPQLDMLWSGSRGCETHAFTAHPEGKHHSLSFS
T3 sequence (O96017 whole entry): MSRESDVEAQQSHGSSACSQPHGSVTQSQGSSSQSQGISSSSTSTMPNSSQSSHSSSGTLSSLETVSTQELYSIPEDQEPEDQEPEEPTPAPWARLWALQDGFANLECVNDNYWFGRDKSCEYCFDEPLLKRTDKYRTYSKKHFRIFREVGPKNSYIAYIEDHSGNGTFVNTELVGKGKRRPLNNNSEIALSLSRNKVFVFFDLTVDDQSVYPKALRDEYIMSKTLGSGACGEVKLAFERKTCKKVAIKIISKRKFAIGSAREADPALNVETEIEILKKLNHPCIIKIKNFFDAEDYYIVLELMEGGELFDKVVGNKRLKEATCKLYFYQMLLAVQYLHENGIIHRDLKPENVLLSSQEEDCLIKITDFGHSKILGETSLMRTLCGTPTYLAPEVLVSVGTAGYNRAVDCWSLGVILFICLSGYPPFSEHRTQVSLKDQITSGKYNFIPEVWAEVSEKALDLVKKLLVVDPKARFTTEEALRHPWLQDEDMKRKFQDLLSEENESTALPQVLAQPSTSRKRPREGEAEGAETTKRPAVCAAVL
T1 sequence (Q9UQB9 whole entry): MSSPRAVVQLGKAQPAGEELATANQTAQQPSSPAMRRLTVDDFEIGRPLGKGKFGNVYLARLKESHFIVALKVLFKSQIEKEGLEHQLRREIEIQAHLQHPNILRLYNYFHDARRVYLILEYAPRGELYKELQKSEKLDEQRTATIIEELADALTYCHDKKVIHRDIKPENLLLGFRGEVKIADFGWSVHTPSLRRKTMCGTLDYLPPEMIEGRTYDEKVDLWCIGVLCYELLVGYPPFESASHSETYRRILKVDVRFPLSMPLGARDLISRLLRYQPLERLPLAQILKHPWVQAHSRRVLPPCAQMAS
T26 sequence (P11802 whole entry): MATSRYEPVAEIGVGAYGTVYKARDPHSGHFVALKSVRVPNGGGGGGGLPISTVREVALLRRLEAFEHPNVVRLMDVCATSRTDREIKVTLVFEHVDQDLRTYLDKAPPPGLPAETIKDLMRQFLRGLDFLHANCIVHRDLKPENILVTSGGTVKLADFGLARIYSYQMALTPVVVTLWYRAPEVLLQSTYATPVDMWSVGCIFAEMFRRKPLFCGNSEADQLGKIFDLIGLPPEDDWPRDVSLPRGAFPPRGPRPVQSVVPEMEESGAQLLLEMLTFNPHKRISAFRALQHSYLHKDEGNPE
T26 sequence (P24385 whole entry partner): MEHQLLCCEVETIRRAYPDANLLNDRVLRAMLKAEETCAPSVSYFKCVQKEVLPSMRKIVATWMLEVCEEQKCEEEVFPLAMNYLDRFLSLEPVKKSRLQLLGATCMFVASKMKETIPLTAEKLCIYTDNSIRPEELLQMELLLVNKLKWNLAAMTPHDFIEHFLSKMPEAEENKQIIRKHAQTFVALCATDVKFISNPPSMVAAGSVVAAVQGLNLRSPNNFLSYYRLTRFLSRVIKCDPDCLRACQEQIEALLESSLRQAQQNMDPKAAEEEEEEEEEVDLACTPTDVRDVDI
T9 sequence (O60674 whole entry): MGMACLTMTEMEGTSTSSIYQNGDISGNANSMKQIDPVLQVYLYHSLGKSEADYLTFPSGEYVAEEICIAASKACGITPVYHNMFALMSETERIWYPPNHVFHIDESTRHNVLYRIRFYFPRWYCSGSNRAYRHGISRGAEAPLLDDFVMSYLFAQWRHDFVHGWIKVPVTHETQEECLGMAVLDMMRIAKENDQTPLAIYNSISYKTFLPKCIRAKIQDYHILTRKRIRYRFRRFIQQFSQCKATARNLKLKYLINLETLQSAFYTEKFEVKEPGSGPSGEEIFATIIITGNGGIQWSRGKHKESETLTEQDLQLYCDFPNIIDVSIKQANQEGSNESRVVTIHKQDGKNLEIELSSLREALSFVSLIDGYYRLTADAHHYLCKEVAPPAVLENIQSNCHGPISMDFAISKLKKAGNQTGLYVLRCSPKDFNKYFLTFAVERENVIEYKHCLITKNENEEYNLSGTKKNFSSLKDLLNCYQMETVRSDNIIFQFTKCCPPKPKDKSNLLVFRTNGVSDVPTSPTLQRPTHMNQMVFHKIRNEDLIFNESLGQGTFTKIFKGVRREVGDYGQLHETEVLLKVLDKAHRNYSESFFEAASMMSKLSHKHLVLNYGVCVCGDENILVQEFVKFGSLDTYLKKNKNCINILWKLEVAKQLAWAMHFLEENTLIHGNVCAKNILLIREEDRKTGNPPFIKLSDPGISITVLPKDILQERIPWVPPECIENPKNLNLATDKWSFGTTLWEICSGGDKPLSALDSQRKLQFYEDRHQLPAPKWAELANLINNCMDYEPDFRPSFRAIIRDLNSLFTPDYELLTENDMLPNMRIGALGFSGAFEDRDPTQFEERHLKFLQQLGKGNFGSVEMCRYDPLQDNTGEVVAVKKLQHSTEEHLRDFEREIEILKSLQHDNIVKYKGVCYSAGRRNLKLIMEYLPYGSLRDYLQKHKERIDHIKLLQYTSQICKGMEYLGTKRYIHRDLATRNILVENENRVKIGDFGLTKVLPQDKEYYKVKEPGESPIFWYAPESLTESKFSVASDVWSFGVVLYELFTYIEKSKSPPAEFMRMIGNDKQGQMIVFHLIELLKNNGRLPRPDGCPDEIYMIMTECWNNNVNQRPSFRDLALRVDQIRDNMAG
T8 sequence (Q96GD4 whole entry): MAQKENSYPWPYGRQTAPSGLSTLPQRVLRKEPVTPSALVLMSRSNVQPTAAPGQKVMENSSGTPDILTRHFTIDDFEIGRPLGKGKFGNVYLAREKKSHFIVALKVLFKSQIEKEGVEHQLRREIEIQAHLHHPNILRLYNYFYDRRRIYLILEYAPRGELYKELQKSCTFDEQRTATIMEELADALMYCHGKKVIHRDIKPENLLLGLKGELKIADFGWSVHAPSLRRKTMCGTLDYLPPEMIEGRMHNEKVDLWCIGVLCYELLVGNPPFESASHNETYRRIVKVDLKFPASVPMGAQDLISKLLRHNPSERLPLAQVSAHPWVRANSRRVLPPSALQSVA
T14 sequence (O14757 whole entry): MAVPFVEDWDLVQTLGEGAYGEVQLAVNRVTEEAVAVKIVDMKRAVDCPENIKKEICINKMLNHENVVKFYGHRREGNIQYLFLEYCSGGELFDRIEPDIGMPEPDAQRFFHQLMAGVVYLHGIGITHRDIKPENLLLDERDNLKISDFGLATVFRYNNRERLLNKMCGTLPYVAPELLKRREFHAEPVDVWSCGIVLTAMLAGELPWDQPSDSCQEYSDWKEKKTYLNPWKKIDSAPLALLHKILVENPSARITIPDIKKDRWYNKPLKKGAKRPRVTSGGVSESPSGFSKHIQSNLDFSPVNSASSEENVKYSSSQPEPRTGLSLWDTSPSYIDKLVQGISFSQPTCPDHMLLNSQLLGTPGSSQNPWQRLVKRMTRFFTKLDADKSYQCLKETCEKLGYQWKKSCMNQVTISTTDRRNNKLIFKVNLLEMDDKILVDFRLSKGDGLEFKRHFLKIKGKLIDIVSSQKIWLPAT
T21 sequence (P31749 whole entry): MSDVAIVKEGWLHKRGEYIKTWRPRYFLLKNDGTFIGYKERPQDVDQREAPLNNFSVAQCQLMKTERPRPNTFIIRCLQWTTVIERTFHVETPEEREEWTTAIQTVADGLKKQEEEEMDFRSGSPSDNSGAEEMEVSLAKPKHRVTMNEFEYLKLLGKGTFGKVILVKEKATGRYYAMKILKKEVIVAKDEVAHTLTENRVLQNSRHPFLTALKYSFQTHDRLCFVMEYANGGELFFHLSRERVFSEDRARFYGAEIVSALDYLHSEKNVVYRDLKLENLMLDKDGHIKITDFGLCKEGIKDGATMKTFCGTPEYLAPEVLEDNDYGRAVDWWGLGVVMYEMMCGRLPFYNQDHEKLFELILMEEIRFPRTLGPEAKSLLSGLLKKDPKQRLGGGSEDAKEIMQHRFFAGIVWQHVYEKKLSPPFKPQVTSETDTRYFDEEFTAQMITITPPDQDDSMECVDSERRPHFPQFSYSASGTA

IC50 [2]: > 1000 nM
IC50 [3]: > 1000 nM
IC50 [4]: 100 to 1000 nM
IC50 [5]: > 10000 nM
IC50 [6]: 100 to 1000 nM
IC50 [7]: < 100 nM
IC50 [8]: 100 to 1000 nM
IC50 [9]: < 100 nM
IC50 [10]: 100 to 1000 nM
IC50 [11]: < 100 nM
IC50 [12]: 100 to 1000 nM
IC50 [13]: > 1000 nM
IC50 [14]: > 1000 nM
IC50 [15]: 100 to 1000 nM
IC50 [16]: > 1000 nM
IC50 [17]: 100 to 1000 nM
IC50 [18]: < 100 nM
IC50 [19]: < 100 nM
IC50 [20]: 100 to 1000 nM
IC50 [21]: < 100 nM
IC50 [22]: > 1000 nM
IC50 [23]: < 100 nM
IC50 [24]: < 100 nM
IC50 [25]: > 10000 nM
IC50 [26]: 100 to 1000 nM
IC50 [27]: 100 to 1000 nM
IC50 [28]: > 1000 nM
IC50 [29]: 100 to 1000 nM
IC50 [30]: < 100 nM
IC50 [31]: > 1000 nM
IC50 [32]: < 100 nM
IC50 [33]: 100 to 1000 nM
SMILES: CN1CCN(c2ccc(Nc3ncc(/C=C/C#N)c(NC4CCCC4)n3)cc2)CC1 [Compound 8h, 3-{4-Cyclopentylamino-2-[4-(4-methylpiperazin-1-yl)phenylamino]pyrimidin-5-yl}acrylonitrile]
IC50 [1]: < 1 µM
